Activity calls are given as the source filed them.
Assays:
[1] = DRD fibroblast viability loss – cell-based, non-viral oncogenic, luminescence, dose response (AID 1934); type: functional; details: Homo sapiens
[2] = alpha-synuclein stem-loop luciferase translation blockers – H4 neuroglioma cells, luminescence, confirmation (AID 1988); type: functional, cell-based
[3] = Luminescence Cell-Based Dose Response HTS to Identify Inhibitors of 5'UTR Stem-Loop Driven Prion Protein mRNA Translation in H4 Neuroglioblastoma Cells. [Related pubchem assays: 1827 (Project Summary), 1813 (Primary HTS)]; type: functional
BJ [4] = assay: cells; type: functional, cell-based; details: Homo sapiens
BJ [5] = assay: BJ-TERT fibroblast viability loss – cell-based, RAS-independent, luminescence, dose response (AID 1933); type: functional; details: Homo sapiens
BJ [6] = assay: BJ-TERT-LT-ST fibroblast viability loss – cell-based, RAS-independent, luminescence, dose response (AID 1935); type: functional; details: Homo sapiens;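 note: BJ fibroblasts immortalized with TERT plus LT and ST oncogenes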
BJ [7] = assay: growth inhibition of engineered Ras-driven BJ cells – cell-based, alamar blue fluorescence, cherrypicked samples, dose response (AID 2631); type: functional; details: Homo sapiens;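 note: confirmatory dose-response assay in RAS-dependent BJ fibroblasts engineered with TERT, LT and ST, with cytotoxicity read by fluorescence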
[8] = luciferase reporter signal suppression in cells – H4 neuroglioma cells, luminescence, dose response (AID 1990); type: functional, cell-based
[9] = biological target: Adenosylmethionine-8-amino-7-oxononanoate aminotransferase (Mycobacterium tuberculosis, UniProt P9WQ81); assay: Mycobacterium tuberculosis BioA enzyme inhibitor Measured in Biochemical System Using Plate Reader - 2163-02_Inhibitor_Dose_CherryPick_Activity.; type: functional, Mycobacterium tuberculosis UT205
Beta-lactamase [10] = biological target: T1, Beta-lactamase (Pseudomonas aeruginosa, UniProt Q79MP6); assay: inhibition of IMP-1 beta-lactamase activity – biochemical, epi-absorbance, selectivity assay for VIM-2 inhibitor project, dose response (AID 1920)
Beta-lactamase [11] = biological target: Beta-lactamase (Salmonella choleraesuis (strain SC-B67), UniProt Q5J463); assay: Epi-absorbance-based counterscreen for selective VIM-2 inhibitors: dose response biochemical high throughput screening assay to identify inhibitors of TEM-1 serine-beta-lactamase.
Beta-lactamase [12] = biological target: T1, Beta-lactamase; assay: […] counterscreen for selective VIM-2 inhibitors: dose response biochemical high throughput screening assay to identify inhibitors of IMP-1 metallo-beta-lactamase.
Streptokinase A = biological target: T2, Streptokinase A (Streptococcus pyogenes serotype M1, UniProt P10520); assay: viability-normalized secreted streptokinase activity reduction – plasminogen activation absorbance, OD405, dose response (AID 1914); type: functional, Streptococcus pyogenes M1 GAS;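 note: secreted streptokinase activity via plasminogen activation per viability signal from cell pellet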
T2 sequence (P10520 whole entry): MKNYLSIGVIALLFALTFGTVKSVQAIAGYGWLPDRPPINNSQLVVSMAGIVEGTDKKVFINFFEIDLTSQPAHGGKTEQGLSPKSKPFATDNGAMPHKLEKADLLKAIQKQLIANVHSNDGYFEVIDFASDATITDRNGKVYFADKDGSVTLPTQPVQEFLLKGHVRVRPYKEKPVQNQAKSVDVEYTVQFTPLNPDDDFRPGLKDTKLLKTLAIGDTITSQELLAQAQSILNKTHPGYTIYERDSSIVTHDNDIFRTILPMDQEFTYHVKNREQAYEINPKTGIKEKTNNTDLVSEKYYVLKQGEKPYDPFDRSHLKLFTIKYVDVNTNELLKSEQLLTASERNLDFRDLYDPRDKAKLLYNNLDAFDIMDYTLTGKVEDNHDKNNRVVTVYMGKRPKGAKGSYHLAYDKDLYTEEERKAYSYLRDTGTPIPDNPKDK

Insulin-degrading enzyme [13] = biological target: T3, Insulin-degrading enzyme (Homo sapiens, UniProt P14735); assay: cellular IDE activation of Abeta substrate cleavage – fluorescence polarization, HEK cells, dose response (AID 588439); type: functional, cell-based
T3 sequence (P14735 whole entry): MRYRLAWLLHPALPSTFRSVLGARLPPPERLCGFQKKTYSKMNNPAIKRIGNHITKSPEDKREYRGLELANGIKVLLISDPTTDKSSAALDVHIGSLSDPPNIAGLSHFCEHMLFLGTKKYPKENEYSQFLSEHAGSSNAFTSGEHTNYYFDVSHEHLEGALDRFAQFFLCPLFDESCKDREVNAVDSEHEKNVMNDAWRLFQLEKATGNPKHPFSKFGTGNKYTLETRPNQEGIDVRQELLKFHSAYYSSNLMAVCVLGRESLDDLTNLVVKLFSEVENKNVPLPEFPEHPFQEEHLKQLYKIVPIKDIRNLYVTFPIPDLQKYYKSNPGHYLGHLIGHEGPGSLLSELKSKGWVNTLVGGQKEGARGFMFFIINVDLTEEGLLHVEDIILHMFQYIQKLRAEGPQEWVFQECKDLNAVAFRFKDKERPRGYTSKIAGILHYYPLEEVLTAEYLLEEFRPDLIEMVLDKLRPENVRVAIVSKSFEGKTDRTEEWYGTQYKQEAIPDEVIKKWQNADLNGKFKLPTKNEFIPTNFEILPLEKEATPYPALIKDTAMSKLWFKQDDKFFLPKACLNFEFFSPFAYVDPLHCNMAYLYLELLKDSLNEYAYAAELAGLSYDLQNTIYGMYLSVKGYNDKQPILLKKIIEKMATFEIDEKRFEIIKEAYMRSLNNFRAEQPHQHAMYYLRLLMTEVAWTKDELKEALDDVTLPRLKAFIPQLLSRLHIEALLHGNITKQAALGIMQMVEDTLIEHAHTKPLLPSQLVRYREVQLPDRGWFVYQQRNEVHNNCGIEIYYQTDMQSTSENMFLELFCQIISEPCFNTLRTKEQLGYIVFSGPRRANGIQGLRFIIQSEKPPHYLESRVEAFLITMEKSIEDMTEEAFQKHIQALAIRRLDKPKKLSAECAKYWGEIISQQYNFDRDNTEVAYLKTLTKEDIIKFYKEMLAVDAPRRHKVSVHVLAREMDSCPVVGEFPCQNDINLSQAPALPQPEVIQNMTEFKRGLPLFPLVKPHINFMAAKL

[14] = viability of PTEN-deleted HCT116 cells – cell-based, HCT116 PTEN knockout, dose response (AID 1047); type: functional;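 note: HCT116 colon tumor cells with PTEN knocked out; cells exposed to compound for 60 hours before readout; potency for loss of cell viability measured by luminescence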
[15] = Trypanosoma cruzi growth suppression in host cells – NIH3T3 host cells, beta-gal luminescence, confirmation (AID 2044); type: functional, cell-based;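 note: intracellular parasites grown in NIH/3T3 mouse fibroblasts as host cells; luminescent beta-galactosidase reporter signal from transgenic T. cruzi replicating inside host cells; inhibitors lower the luminescence signal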
[16] = biological target: Beta-2 adrenergic receptor (Homo sapiens, UniProt P07550); assay: ADRB2 activation measured by internalization – cell-based, FAP fluorogen, flow cytometry, cherry pick 1, dose response (AID 588763); type: functional
[17] = NIH3T3 cell viability loss – ATP luminescence, mouse fibroblasts, counter-screen, dose response (AID 2010); type: functional, cell-based;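 note: cells exposed to compound for about 90 hours before reading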
Insulin-degrading enzyme [18] = biological target: T3, Insulin-degrading enzyme; assay: recombinant IDE activation, cell-free – biochemical, fluorescence polarization, counter-screen for IDE activator project, dose response (AID 588681)
[19] = viability of HCT116 lacking mutant beta-catenin – cell-based, human colon tumor, dose response (AID 1045); type: functional;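 note: HCT116 colon tumor cells with beta catenin knocked out; cells exposed to compound for 60 hours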
[20] = non-specific 3'UTR reporter inhibition in Clone20-Shn3RL – cell-based, Renilla luciferase, cherry-picked, counter-screen for Shn3 inhibitor project, dose response (AID 624133); type: functional
[21] = loss of viability in HepG2 cells – cell-based, CellTiter-Glo, cherry-picked, cytotoxicity control for Shn3 inhibitor project, dose response (AID 624134); type: functional
HEK293 [22] = assay: membrane integrity loss in HEK cells – cell-based, fluorescence, cytotoxicity control for IDE activator project, dose response (AID 588440); type: functional; details: Homo sapiens;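 note: cytotoxicity by LDH release measuring loss of membrane integrity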
[23] = test system: Streptococcus sp. 'group A'; assay: Streptococcus pyogenes SK(-)GAS viability under kanamycin – luminescence, BacTiterGlo, confirmation, counter-screen for streptokinase expression inhibitor project, dose response (AID 1900); type: functional, organism-based
[24] = reduction of Shn3 3'UTR-driven luciferase in osteoblasts – cell-based, Clone20 osteoblasts, firefly luciferase, cherry-picked, dose response (AID 624132); type: functional;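 note: firefly luciferase luminescence from reporter carrying the Shn3 3'UTR in osteoblasts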
HEK293 [25] = assay: EBV LMP1 TES2 canonical NF-kB signalling blockers – cell-based, HEK293, luciferase, cherry-pick, dose response (AID 588343); type: functional; details: Homo sapiens
Streptococcus = assay: GAS UMAA2166 growth inhibition – luminescence, BacTiterGlo, counter-screen for streptokinase expression inhibitor project, dose response (AID 1915); type: functional, organism-based;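 note: potency for reduction of bacterial viability or growth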
INS1 = assay: INS-1E survival protection against cytokine death – cell-based, luminescence, retest, dose response (AID 449756); type: functional; details: Rattus norvegicus;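 note: cell death triggered by IL-1 beta plus TNF-alpha plus IFN-gamma mixture; protective hits raise ATP signal compared with cytokine alone wells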
HEK293 [26] = assay: optical interference in Abeta FP readout, dose response, artefact control for IDE activator project, biochemical, fluorescence polarization (AID 588442); type: functional, cell-based; details: Homo sapiens
[27] = biological target: T4, Sentrin-specific protease 8 (Homo sapiens, UniProt Q96LD8); type: functional
T4 sequence (Q96LD8 whole entry): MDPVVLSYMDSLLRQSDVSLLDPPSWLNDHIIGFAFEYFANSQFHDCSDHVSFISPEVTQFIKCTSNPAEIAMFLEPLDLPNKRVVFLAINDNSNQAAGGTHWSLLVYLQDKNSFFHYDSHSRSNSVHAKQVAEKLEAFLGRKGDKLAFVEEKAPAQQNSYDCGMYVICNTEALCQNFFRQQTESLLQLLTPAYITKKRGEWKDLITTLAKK

[28] = biological target: Glucose-6-phosphate 1-dehydrogenase (Homo sapiens, UniProt P11413); assay: inhibition of Homo sapiens G6PD, dose series – biochemical, fluorescence, selectivity assay for P. falciparum G6PD inhibitor project, dose response (AID 504792); type: functional
[29] = biological target: T4, Sentrin-specific protease 8; type: functional; remark: listed apart in the source

T1 sequence (Q79MP6 whole entry): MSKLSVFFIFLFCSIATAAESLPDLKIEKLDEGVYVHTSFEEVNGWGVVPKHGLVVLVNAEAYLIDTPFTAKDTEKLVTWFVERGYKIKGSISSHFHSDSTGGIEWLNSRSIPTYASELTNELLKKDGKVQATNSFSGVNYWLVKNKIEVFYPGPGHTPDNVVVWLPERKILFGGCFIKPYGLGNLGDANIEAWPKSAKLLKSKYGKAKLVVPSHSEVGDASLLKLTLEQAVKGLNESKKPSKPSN
Sequence of Adenosylmethionine-8-amino-7-oxononanoate aminotransferase (P9WQ81 whole entry): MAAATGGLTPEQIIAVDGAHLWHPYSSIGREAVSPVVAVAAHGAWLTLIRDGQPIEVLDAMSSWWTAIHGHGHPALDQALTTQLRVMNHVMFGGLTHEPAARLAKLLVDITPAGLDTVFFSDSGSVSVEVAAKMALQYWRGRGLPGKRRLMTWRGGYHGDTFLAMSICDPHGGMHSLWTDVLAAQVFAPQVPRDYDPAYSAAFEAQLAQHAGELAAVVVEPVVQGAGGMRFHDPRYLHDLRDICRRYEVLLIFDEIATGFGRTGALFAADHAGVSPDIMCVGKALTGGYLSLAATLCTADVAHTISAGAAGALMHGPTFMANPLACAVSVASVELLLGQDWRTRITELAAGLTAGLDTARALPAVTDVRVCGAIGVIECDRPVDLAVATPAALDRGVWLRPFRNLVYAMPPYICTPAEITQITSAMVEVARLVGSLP
Sequence of Glucose-6-phosphate 1-dehydrogenase (P11413 whole entry): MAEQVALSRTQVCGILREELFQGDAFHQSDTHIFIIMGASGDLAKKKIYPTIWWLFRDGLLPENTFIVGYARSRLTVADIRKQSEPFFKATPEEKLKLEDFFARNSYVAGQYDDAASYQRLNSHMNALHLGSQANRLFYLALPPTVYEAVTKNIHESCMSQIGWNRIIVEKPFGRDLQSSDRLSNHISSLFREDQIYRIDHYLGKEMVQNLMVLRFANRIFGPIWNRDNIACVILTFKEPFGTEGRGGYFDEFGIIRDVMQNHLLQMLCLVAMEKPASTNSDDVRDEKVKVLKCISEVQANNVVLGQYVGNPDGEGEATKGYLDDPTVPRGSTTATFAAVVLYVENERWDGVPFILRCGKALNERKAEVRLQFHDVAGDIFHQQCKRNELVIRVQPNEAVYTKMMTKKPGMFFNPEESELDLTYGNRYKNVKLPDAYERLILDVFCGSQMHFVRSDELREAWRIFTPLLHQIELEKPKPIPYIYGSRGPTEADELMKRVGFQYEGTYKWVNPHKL
Sequence of Beta-lactamase (Salmonella choleraesuis (strain SC-B67), UniProt Q5J463) (Q5J463 whole entry): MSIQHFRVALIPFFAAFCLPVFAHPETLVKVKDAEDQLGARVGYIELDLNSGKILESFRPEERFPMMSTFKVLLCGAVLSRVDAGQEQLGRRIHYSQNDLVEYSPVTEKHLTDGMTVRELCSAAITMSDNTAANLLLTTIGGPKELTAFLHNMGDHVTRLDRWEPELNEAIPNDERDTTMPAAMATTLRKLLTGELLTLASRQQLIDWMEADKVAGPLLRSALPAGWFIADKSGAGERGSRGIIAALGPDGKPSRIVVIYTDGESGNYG
Sequence of Beta-2 adrenergic receptor (P07550 whole entry): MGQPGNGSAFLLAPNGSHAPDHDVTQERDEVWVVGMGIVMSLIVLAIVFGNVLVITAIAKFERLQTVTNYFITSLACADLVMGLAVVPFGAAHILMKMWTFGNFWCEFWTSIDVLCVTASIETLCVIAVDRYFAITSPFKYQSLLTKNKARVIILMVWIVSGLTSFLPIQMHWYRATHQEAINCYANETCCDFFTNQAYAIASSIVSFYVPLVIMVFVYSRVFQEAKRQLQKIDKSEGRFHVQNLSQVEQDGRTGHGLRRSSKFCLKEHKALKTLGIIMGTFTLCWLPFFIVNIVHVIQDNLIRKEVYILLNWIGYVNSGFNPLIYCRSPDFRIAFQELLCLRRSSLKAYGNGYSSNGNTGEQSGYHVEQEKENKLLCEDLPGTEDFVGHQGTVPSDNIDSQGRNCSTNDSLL

## Cc1cc2nc(/C=C/c3cccnc3)[nH]c2cc1C
[1]
  EC50: 1.42 µM (inconclusive)
[2]
  EC50: 0.154 µM (active)
[3]
  EC50: 0.318 µM (active)
BJ [4]
  EC50: 1.89 µM (inconclusive)
BJ [5]
  EC50: 0.553 µM (inconclusive)
BJ [6]
  EC50: 15.1 µM (inconclusive)
BJ [7]
  EC50: < 0.104 µM (active)
[8]
  EC50: 0.336 µM (inconclusive)

## Cc1nn(CCC(=O)O)c2nc(-c3cccnc3)cc(C(F)(F)F)c12
[9]
  AC50: 10.2 µM (active)

## Cc1ccc(-n2c(-c3nn(C)c(C)c3Cl)n[nH]c2=S)cc1
Beta-lactamase [10]
  IC50: > 59.6 µM (inactive)
Beta-lactamase [11]
  IC50: > 59.6 µM (inactive)
Beta-lactamase [12]
  IC50: > 59.6 µM (inactive)

## COc1ccc(Cn2c(SCc3cc(C)ccc3C)nc3cc(OC)c(OC)cc3c2=N)cc1
Streptokinase A
  EC50: 6.67 µM (active)
Insulin-degrading enzyme [13]
  EC50: 6.95 µM (active)
[14]
  EC50: 2.47 µM (active)
[15]
  EC50: 1.19 µM (active)
[16]
  EC50: 83.4 µM (inactive)
[17]
  EC50: 9.83 µM (active)
Insulin-degrading enzyme [18]
  EC50: > 54.7 µM (inactive)
[2]
  EC50: 10.8 µM (active)
[19]
  EC50: 1.88 µM (active)
[20]
  AC50: 9.31 µM (active)
[3]
  EC50: 30.7 µM (active)
[21]
  AC50: 11.2 µM (active)
HEK293 [22]
  IC50: 10.7 µM (inactive)
[23]
  EC50: 5.16 µM (active)
[24]
  AC50: 7.91 µM (active)
HEK293 [25]
  AC50: 7.9 µM (active)
[8]
  EC50: 24.1 µM (active)
Streptococcus
  EC50: 8.37 µM (active)
INS1
  AC50: 3.48 µM (active)
HEK293 [26]
  EC50: > 56 µM (inactive)

## O=C(Nc1cccnc1)c1ccc(N2CCOCC2)c([N+](=O)[O-])c1
[9]
  AC50: 6.8 µM (active)

## Cc1ccc(Nc2cc(C)c(O)c(C)c2)cc1
[27]
  IC50: 13.9 µM (active)
[28]
  IC50: 40 µM (inactive)
[29]
  IC50: 23.7 µM (active)

— ChEMBL document CHEMBL1201862, “PubChem BioAssay data set” (2004)
